*1 amine or outer side, *2 acyl side, *3 side chain or, on linkers, in order; H or OH if unused. Where a SMILES comes first, the peptide text is derived from it. Bridges are numbered along the chain shown (N, C = ends). [ ]: non-standard residue; d: D form. The star is where a group is joined. X24 = O=C([C@H](Cc1ccc(C(F)(F)F)cc1)N(CCC(F)(F)F)[*:1])[*:2]; hPhe(3-Cl-4-CF3) = N[C@@H](CCc1ccc(C(F)(F)F)c(Cl)c1)C(=O)O; X42 = COCCCN([C@@H](Cc1ccc(C(F)(F)F)cc1)C(=O)[*:2])[*:1]; X28 = C#CCN([C@@H](Cc1ccc(C(F)(F)F)cc1)C(=O)[*:2])[*:1]; X32 = COCCN([C@@H](Cc1ccc(C(F)(F)F)cc1)C(=O)[*:2])[*:1]; NPrPhe(4-CF3) = CCCN[C@@H](Cc1ccc(C(F)(F)F)cc1)C(=O)O; X48 = C=CCCN([C@@H](Cc1ccc(C)cc1)C(=O)[*:2])[*:1]; X40 = CCCN([C@@H](Cc1ccc(OC)cc1)C(=O)[*:2])[*:1]; X50 = C=CCN([C@@H](Cc1ccc(C)cc1)C(=O)[*:2])[*:1]; NPrPhe(4-Me) = CCCN[C@@H](Cc1ccc(C)cc1)C(=O)O; NMeGly(cPent) = CN[C@H](C(=O)O)C1CCCC1; Aze(3S-Me) = C[C@H]1CN[C@@H]1C(=O)O; NMeAllylGly = C=CC[C@H](NC)C(=O)O; NMeD = CN[C@@H](CC(=O)O)C(=O)O; NMeL = CN[C@@H](CC(C)C)C(=O)O; Morpholide = C1CN(*)CCO1; NMeA = CN[C@@H](C)C(=O)O; Ac5c = NC1(C(=O)O)CCCC1; Aze = O=C(O)[C@@H]1CCN1; NEtG = CCNCC(=O)O; Sar = CNCC(=O)O
Legend:
[1] = target: GDP-bound HRAS wild-type protein (Homo sapiens, UniProt P01112); experiment: Binding to HRAS by surface plasmon resonance (SPR), Single Cycle Kinetics; settings: KD ratio HRAS/KRAS, SPR
Chain of GDP-bound HRAS wild-type protein (P01112 whole entry): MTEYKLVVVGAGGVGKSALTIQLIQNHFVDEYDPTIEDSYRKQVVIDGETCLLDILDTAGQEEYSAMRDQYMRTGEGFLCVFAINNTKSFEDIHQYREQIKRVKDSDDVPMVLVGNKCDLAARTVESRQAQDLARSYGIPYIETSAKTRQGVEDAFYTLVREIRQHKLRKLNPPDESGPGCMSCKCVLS

[2] = target: GDP-bound NRAS wild-type protein (Homo sapiens, UniProt P01111); experiment: Binding to NRAS by surface plasmon resonance (SPR), Single Cycle Kinetics; settings: KD ratio NRAS/KRAS, SPR
Chain of GDP-bound NRAS wild-type protein (P01111 whole entry): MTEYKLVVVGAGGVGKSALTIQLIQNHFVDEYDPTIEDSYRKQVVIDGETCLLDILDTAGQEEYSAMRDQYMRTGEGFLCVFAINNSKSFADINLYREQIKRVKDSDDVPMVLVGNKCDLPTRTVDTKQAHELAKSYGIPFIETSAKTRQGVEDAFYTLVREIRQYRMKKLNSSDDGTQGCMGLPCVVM

Structure (SMILES) | HRAS/KRAS (ratio of KD for GDP-bound HRAS wild-type to KD for KRAS) [1] | NRAS/KRAS (ratio of KD for GDP-bound NRAS wild-type to KD for KRAS) [2]
C#CCN1C(=O)CN(C)C(=O)CN(C)C(=O)[C@H]([C@@H](C)CC)NC(=O)[C@H](CC(C)C)N(C)C(=O)C[C@@H](C(=O)N2CCOCC2)N(C)C(=O)[C@H](C2CCCC2)N(C)C(=O)C2(CCCC2)NC(=O)[C@@H]2CCCN2C(=O)[C@H](CCc2ccc(C(F)(F)F)c(Cl)c2)NC(=O)CN(C)C(=O)[C@@H]1Cc1ccc(C(F)(F)F)cc1 [PP0130] ([NMeL]I[Sar][Sar][X28][Sar][hPhe(3-Cl-4-CF3)]P[Ac5c][NMeGly(cPent)][NMeD]-Morpholide; lactam N-11) | C (A compound having a KD ratio of 0.1 or more and less than 3 is denoted as C) | C (A compound having a KD ratio of 0.1 or more and less than 3 is denoted as C)
CC[C@H](C)[C@@H]1NC(=O)[C@H](CC(C)C)N(C)C(=O)C[C@@H](C(=O)N2CCOCC2)N(C)C(=O)[C@H](C2CCCC2)N(C)C(=O)C2(CCCC2)NC(=O)[C@@H]2CCCN2C(=O)[C@H](CCc2ccc(C(F)(F)F)c(Cl)c2)NC(=O)CN(C)C(=O)[C@H](Cc2ccc(C(F)(F)F)cc2)N(CCC(F)(F)F)C(=O)CN(C)C(=O)CN(C)C1=O [PP0131] ([NMeL]I[Sar][Sar][X24][Sar][hPhe(3-Cl-4-CF3)]P[Ac5c][NMeGly(cPent)][NMeD]-Morpholide; lactam N-11) | C (A compound having a KD ratio of 0.1 or more and less than 3 is denoted as C) | B (a compound having 3 or more and less than 10 is denoted as B)
CC[C@H](C)[C@@H]1NC(=O)[C@H](CC(C)C)N(C)C(=O)C[C@@H](C(=O)N2CCOCC2)N(C)C(=O)[C@H](C2CCCC2)N(C)C(=O)C2(CCCC2)NC(=O)[C@@H]2CCCN2C(=O)[C@H](CCc2ccc(C(F)(F)F)c(Cl)c2)NC(=O)CN(C)C(=O)[C@H](Cc2ccc(C(F)(F)F)cc2)N(CCOC)C(=O)CN(C)C(=O)CN(C)C1=O [PP0132] ([NMeL]I[Sar][Sar][X32][Sar][hPhe(3-Cl-4-CF3)]P[Ac5c][NMeGly(cPent)][NMeD]-Morpholide; lactam N-11) | C (A compound having a KD ratio of 0.1 or more and less than 3 is denoted as C) | C (A compound having a KD ratio of 0.1 or more and less than 3 is denoted as C)
CC[C@H](C)[C@@H]1NC(=O)[C@H](CC(C)C)N(C)C(=O)C[C@@H](C(=O)N2CCOCC2)N(C)C(=O)[C@H](C2CCCC2)N(C)C(=O)C2(CCCC2)NC(=O)[C@@H]2CCCN2C(=O)[C@H](CCc2ccc(C(F)(F)F)c(Cl)c2)NC(=O)CN(C)C(=O)[C@H](Cc2ccc(C(F)(F)F)cc2)N(CCCOC)C(=O)CN(C)C(=O)CN(C)C1=O [PP0133] ([NMeL]I[Sar][Sar][X42][Sar][hPhe(3-Cl-4-CF3)]P[Ac5c][NMeGly(cPent)][NMeD]-Morpholide; lactam N-11) | C (A compound having a KD ratio of 0.1 or more and less than 3 is denoted as C) | B (a compound having 3 or more and less than 10 is denoted as B)
CCCN1C(=O)[C@@H]2CCN2C(=O)[C@H](C)N(C)C(=O)[C@H]([C@@H](C)CC)NC(=O)[C@H](CC(C)C)N(C)C(=O)C[C@@H](C(=O)N2CCOCC2)N(C)C(=O)[C@H](C2CCCC2)N(C)C(=O)C2(CCCC2)NC(=O)[C@@H]2CCCN2C(=O)[C@H](CCc2ccc(C(F)(F)F)c(Cl)c2)NC(=O)CN(C)C(=O)[C@@H]1Cc1ccc(OC)cc1 [PP0134] ([NMeL]I[NMeA][Aze][X40][Sar][hPhe(3-Cl-4-CF3)]P[Ac5c][NMeGly(cPent)][NMeD]-Morpholide; lactam N-11) | B (a compound having 3 or more and less than 10 is denoted as B) | C (A compound having a KD ratio of 0.1 or more and less than 3 is denoted as C)
CCCN1C(=O)CN(C)C(=O)CN(C)C(=O)[C@H]([C@@H](C)CC)NC(=O)[C@H](CC(C)C)N(C)C(=O)C[C@@H](C(=O)N2CCOCC2)N(C)C(=O)[C@H](C2CCCC2)N(C)C(=O)C2(CCCC2)NC(=O)[C@@H]2CCCN2C(=O)[C@H](CCc2ccc(C(F)(F)F)c(Cl)c2)NC(=O)CN(C)C(=O)[C@@H]1Cc1ccc(OC)cc1 [PP0135] ([NMeL]I[Sar][Sar][X40][Sar][hPhe(3-Cl-4-CF3)]P[Ac5c][NMeGly(cPent)][NMeD]-Morpholide; lactam N-11) | C (A compound having a KD ratio of 0.1 or more and less than 3 is denoted as C) | B (a compound having 3 or more and less than 10 is denoted as B)
CCCN1C(=O)[C@@H]2[C@@H](C)CN2C(=O)[C@H](C)N(C)C(=O)[C@H]([C@@H](C)CC)NC(=O)[C@H](CC(C)C)N(C)C(=O)C[C@@H](C(=O)N2CCOCC2)N(C)C(=O)[C@H](C2CCCC2)N(C)C(=O)C2(CCCC2)NC(=O)[C@@H]2CCCN2C(=O)[C@H](CCc2ccc(C(F)(F)F)c(Cl)c2)NC(=O)CN(C)C(=O)[C@@H]1Cc1ccc(C)cc1 [PP0138] ([NMeL]I[NMeA][Aze(3S-Me)][NPrPhe(4-Me)][Sar][hPhe(3-Cl-4-CF3)]P[Ac5c][NMeGly(cPent)][NMeD]-Morpholide; lactam N-11) | C (A compound having a KD ratio of 0.1 or more and less than 3 is denoted as C) | C (A compound having a KD ratio of 0.1 or more and less than 3 is denoted as C)
C=CC[C@H]1C(=O)N(CC=C)[C@@H](Cc2ccc(C)cc2)C(=O)N(C)CC(=O)N[C@@H](CCc2ccc(C(F)(F)F)c(Cl)c2)C(=O)N2CCC[C@H]2C(=O)NC2(CCCC2)C(=O)N(C)[C@@H](C2CCCC2)C(=O)N(C)[C@H](C(=O)N2CCOCC2)CC(=O)N(C)[C@@H](CC(C)C)C(=O)N[C@@H]([C@@H](C)CC)C(=O)N(C)CC(=O)N1C [PP0139] ([NMeL]I[Sar][NMeAllylGly][X50][Sar][hPhe(3-Cl-4-CF3)]P[Ac5c][NMeGly(cPent)][NMeD]-Morpholide; lactam N-11) | C (A compound having a KD ratio of 0.1 or more and less than 3 is denoted as C) | C (A compound having a KD ratio of 0.1 or more and less than 3 is denoted as C)
C=CCCN1C(=O)[C@H](CC=C)N(C)C(=O)CN(C)C(=O)[C@H]([C@@H](C)CC)NC(=O)[C@H](CC(C)C)N(C)C(=O)C[C@@H](C(=O)N2CCOCC2)N(C)C(=O)[C@H](C2CCCC2)N(C)C(=O)C2(CCCC2)NC(=O)[C@@H]2CCCN2C(=O)[C@H](CCc2ccc(C(F)(F)F)c(Cl)c2)NC(=O)CN(C)C(=O)[C@@H]1Cc1ccc(C)cc1 [PP0140] ([NMeL]I[Sar][NMeAllylGly][X48][Sar][hPhe(3-Cl-4-CF3)]P[Ac5c][NMeGly(cPent)][NMeD]-Morpholide; lactam N-11) | B (a compound having 3 or more and less than 10 is denoted as B) | C (A compound having a KD ratio of 0.1 or more and less than 3 is denoted as C)
CCCN1C(=O)[C@@H]2[C@@H](C)CN2C(=O)[C@H](C)N(C)C(=O)[C@H]([C@@H](C)CC)NC(=O)[C@H](CC(C)C)N(C)C(=O)C[C@@H](C(=O)N2CCOCC2)N(C)C(=O)[C@H](C2CCCC2)N(C)C(=O)C2(CCCC2)NC(=O)[C@@H]2CCCN2C(=O)[C@H](CCc2ccc(C(F)(F)F)c(Cl)c2)NC(=O)CN(C)C(=O)[C@@H]1Cc1ccc(C(F)(F)F)cc1 [PP0141] ([NMeL]I[NMeA][Aze(3S-Me)][NPrPhe(4-CF3)][Sar][hPhe(3-Cl-4-CF3)]P[Ac5c][NMeGly(cPent)][NMeD]-Morpholide; lactam N-11) | B (a compound having 3 or more and less than 10 is denoted as B) | C (A compound having a KD ratio of 0.1 or more and less than 3 is denoted as C)
CCCN1C(=O)CN(C)C(=O)CN(C)C(=O)[C@H]([C@@H](C)CC)NC(=O)[C@H](CC(C)C)N(C)C(=O)C[C@@H](C(=O)N2CCOCC2)N(C)C(=O)[C@H](C2CCCC2)N(C)C(=O)C2(CCCC2)NC(=O)CN(CC)C(=O)[C@H](CCc2ccc(C(F)(F)F)c(Cl)c2)NC(=O)CN(C)C(=O)[C@@H]1Cc1ccc(C(F)(F)F)cc1 [PP0144] ([NMeL]I[Sar][Sar][NPrPhe(4-CF3)][Sar][hPhe(3-Cl-4-CF3)][NEtG][Ac5c][NMeGly(cPent)][NMeD]-Morpholide; lactam N-11) | C (A compound having a KD ratio of 0.1 or more and less than 3 is denoted as C) | B (a compound having 3 or more and less than 10 is denoted as B)
CCCN1C(=O)CN(C)C(=O)CN(CC)C(=O)[C@H]([C@@H](C)CC)NC(=O)[C@H](CC(C)C)N(C)C(=O)C[C@@H](C(=O)N2CCOCC2)N(C)C(=O)[C@H](C2CCCC2)N(C)C(=O)C2(CCCC2)NC(=O)[C@@H]2CCCN2C(=O)[C@H](CCc2ccc(C(F)(F)F)c(Cl)c2)NC(=O)CN(C)C(=O)[C@@H]1Cc1ccc(C(F)(F)F)cc1 [PP0145] ([NMeL]I[NEtG][Sar][NPrPhe(4-CF3)][Sar][hPhe(3-Cl-4-CF3)]P[Ac5c][NMeGly(cPent)][NMeD]-Morpholide; lactam N-11) | B (a compound having 3 or more and less than 10 is denoted as B) | B (a compound having 3 or more and less than 10 is denoted as B)
CCCN1C(=O)CN(C)C(=O)CN(C)C(=O)[C@H]([C@@H](C)CC)NC(=O)[C@H](CC(C)C)N(C)C(=O)C[C@@H](C(=O)N2CCOCC2)NC(=O)[C@H](C2CCCC2)N(C)C(=O)C2(CCCC2)NC(=O)[C@@H]2CCCN2C(=O)[C@H](CCc2ccc(C(F)(F)F)c(Cl)c2)NC(=O)CN(C)C(=O)[C@@H]1Cc1ccc(C(F)(F)F)cc1 [PP0146] ([NMeL]I[Sar][Sar][NPrPhe(4-CF3)][Sar][hPhe(3-Cl-4-CF3)]P[Ac5c][NMeGly(cPent)]D-Morpholide; lactam N-11) | B (a compound having 3 or more and less than 10 is denoted as B) | B (a compound having 3 or more and less than 10 is denoted as B)

Reference: patent publication US20250230193A1, “CYCLIC COMPOUND HAVING SELECTIVE KRAS INHIBITORY EFFECT ON HRAS AND NRAS” (CHUGAI SEIYAKU KABUSHIKI KAISHA, priority 2022, published 2025)
